“And” between values parts separate entries of the source, which are not always exact repeats. Equal values may be shown once.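 Compound exposure: 48 hours, 5 concentrations, 96-well plates. GI50 = concentration required for 50% inhibition of growth. TGI denotes the concentration required for complete inhibition of growth.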
tested on: SN12K1 renal; experiment: NCI tumour cell line growth inhibition, 48 h

| Compound | TGI [µM] |
| --- | --- |
| O=c1n(CC2CO2)c(=O)n(CC2CO2)c(=O)n1CC1CO1 (stereo not given) | 174 |

tested on: RXF-631 renal; experiment: NCI tumour cell line growth inhibition, 48 h

| Compound | TGI [µM] | GI50 [µM] |
| --- | --- | --- |
| O=C1CN=C(C[N+](=O)[O-])c2ccccc21 | > 100 | – |
| O=[N+]([O-])c1nccn1CC(O)c1ccc(F)cc1 (stereo not given) | > 100 | – |
| COC(=O)c1cc2c3ccccc3n(C(C)=O)c2cn1 | > 100 | – |
| O=C1c2ccccc2C2(Br)C(=O)c3ccccc3C12 (stereo not given) | 28.1 | – |
| O=S(=O)([O-])c1ccc2c(c1)-c1nc-2nc2[n-]c(nc3nc(nc4[n-]c(n1)c1ccc(S(=O)(=O)[O-])cc41)-c1cc(S(=O)(=O)[O-])ccc1-3)c1ccc(S(=O)(=O)[O-])cc21.[Cu+2].[Na+] | > 100 | > 86.8 |
| Cc1cc(Br)cc(C)c1NC(=O)C(=O)C(C(=O)c1ccc2ccccc2c1)C1OC(=O)c2ccccc21 (stereo not given) | > 100 | – |
| CC(C)(C)[SiH]12(OC(C(F)(F)F)(C(F)(F)F)c3ccccc31)OC(C(F)(F)F)(C(F)(F)F)c1ccccc12 | 10.7 | – |
| O=S(O)CCCCSSCC(O)C(O)CSSCCCCS(=O)O (stereo not given) | > 100 | – |
| O=C1OC(c2ccccc2)=N/C1=C/C=C/c1ccco1 | > 100 | – |
| Cc1ccccc1N1C(=O)/C(=C/c2ccc(N(CCC#N)CCC#N)cc2)N=C1c1cc([N+](=O)[O-])ccc1Cl | > 100 | – |
| CNC(=S)NC1CCCCC1NC(=S)NC (stereo not given) | > 100 | – |
| CC1OC(n2cc(F)c(=O)[nH]c2=O)C=CC1O (stereo not given) | > 100 | – |
| C=C(C=O)[C@@H]1C2OC(=O)C(=C)[C@@H]2CC(O)[C@@]1(C)CC (stereo not given in full) | 37.7 | – |

tested on: M19-MEL melanoma; experiment: NCI tumour cell line growth inhibition, 48 h

| Compound | TGI | GI50 [µM] |
| --- | --- | --- |
| O=[n+]1c2c(n([O-])c3ccccc31)CCCCCCCCCC2 | > 100 µM | – |
| CNC(=S)N(C)C(=S)Nn1c(=O)c(C)nn(C)c1=S | > 100 µM | – |
| O=C1CCCC/C(=C/c2ccccc2)N1 | > 100 µM | – |
| CCCCN(CCCC)CC(C(=O)Nc1ccc([N+](=O)[O-])cc1[N+](=O)[O-])/C(C)=N\NC(=S)NN (stereo not given) | > 100 µM | – |
| S=C(N/N=C/c1ccco1)NC12CC3CC(CC(C3)C1)C2 | > 100 µM | – |
| CS(=O)(=O)N/N=C/CN1C(=O)c2ccccc2C1=O | > 100 µM | – |
| COC(=O)C1=C(c2ccc3c(c2)OCO3)O[C@H](c2cc(OC)c(OC)c(OC)c2)[C@H]1COC(C)=O | 27.9 µM | – |
| COc1ccc(OC)c(NC(=O)C(=O)NNC(=O)c2sc(NNC(C)=O)nc2C)c1 | > 100 µM | – |
| O=[N+]([O-])c1nccn1CC(O)c1ccc(F)cc1 (stereo not given) | > 100 µM | – |
| COc1ccc(NC(=O)CCc2cc(-c3ccc(O)c(OC)c3)nc(NC#N)n2)cc1 | > 100 µM | – |
| COC(=O)c1cc2c3ccccc3n(C(C)=O)c2cn1 | > 100 µM | – |
| O=C1c2ccccc2C2(Br)C(=O)c3ccccc3C12 (stereo not given) | > 100 µM | – |
| O=S(=O)([O-])c1ccc2c(c1)-c1nc-2nc2[n-]c(nc3nc(nc4[n-]c(n1)c1ccc(S(=O)(=O)[O-])cc41)-c1cc(S(=O)(=O)[O-])ccc1-3)c1ccc(S(=O)(=O)[O-])cc21.[Cu+2].[Na+] | > 100 µM | 6.21 |
| CCCCOC(=O)C1C(c2ccc(Cl)cc2)NC(c2ccc(Cl)cc2)C(C(=O)OCCCC)S1(=O)=O (stereo not given) | > 100 µM | – |
| Cc1cc(Br)cc(C)c1NC(=O)C(=O)C(C(=O)c1ccc2ccccc2c1)C1OC(=O)c2ccccc21 (stereo not given) | 46.3 µM | – |
| CCOC(=O)Oc1c(OC)cc(C(=O)NC2CCc3cc(OC)c(OC)c(OC)c3-c3ccc(SC)c(=O)cc32)cc1OC (stereo not given) | > 70 µM | < 0.007 |

| Compound | TGI | GI50 [µM] |
| --- | --- | --- |
| CC(=O)Nc1ccc(C(=O)NN2C(=O)C(Cl)C2c2ccccc2)cc1 (stereo not given) | > 100 µM | – |
| CC(C)(C)OC(=O)NCC(=O)OCc1ccccc1 | > 100 µM | – |
| Cc1ccc(SC(C)/C=C/NNC2=NC(c3ccccc3)C(c3ccccc3)=NN2)cc1 (stereo not given) | > 100 µM | – |
| CC(C)(C)[SiH]12(OC(C(F)(F)F)(C(F)(F)F)c3ccccc31)OC(C(F)(F)F)(C(F)(F)F)c1ccccc12 | 26.4 µM | – |
| CSc1nc2c(nc(C)c(=O)n2C2OCC(OC(C)=O)C(OC(C)=O)C2OC(C)=O)c(=O)[nH]1 (stereo not given) | > 100 µM | – |
| O=c1n(CC2CO2)c(=O)n(CC2CO2)c(=O)n1CC1CO1 (stereo not given) | 113 µM | – |
| O=S(O)CCCCSSCC(O)C(O)CSSCCCCS(=O)O (stereo not given) | 15.6 µM and 29.7 µM | – |
| O=C1OC(c2ccccc2)=N/C1=C/C=C/c1ccco1 | > 100 µM | – |
| COc1ccc(C2S/C(=C\c3ccccc3O)C(=O)N2NC(=O)Cc2ccccc2)cc1 (stereo not given) | > 100 µM | – |
| Cc1ccc(S(=O)(=O)NCC2CCCCC2=O)cc1 (stereo not given) | > 100 µM | – |
| CNC(=S)NC1CCCCC1NC(=S)NC (stereo not given) | > 100 µM | – |
| CC1OC(n2cc(F)c(=O)[nH]c2=O)C=CC1O (stereo not given) | > 100 µM | – |
| C=C(C=O)[C@@H]1C2OC(=O)C(=C)[C@@H]2CC(O)[C@@]1(C)CC (stereo not given in full) | 14.3 µM | – |
| C=C(CCCCC)CN1CCCC1[C@@](C)(O)CC(=O)OCC (stereo not given in full) | > 100 µM | – |
| O=C1c2ccccc2C(=O)C1(Cl)C1(S(=O)(=O)O)c2ccccc2-c2ccccc21 | > 100 µM | – |

tested on: MDA-N; experiment: NCI tumour cell line growth inhibition, 48 h

| Compound | TGI | GI50 [µM] |
| --- | --- | --- |
| O=C(CCCn1ccnc1[N+](=O)[O-])NCCn1cncc1[N+](=O)[O-] | > 100 µM | – |
| CCCCCCCCCC/C=C/CC(=O)SCCNC(=O)CCNC(=O)[C@@H](O)C(C)(C)COP(=O)(O)OP(=O)(O)OCC1OC(n2cnc3c(N)ncnc32)C(O)C1OP(=O)(O)O (stereo not given in full) | > 10 µM | – |
| CCCCc1c(OC)cc(O)c2c1C(=O)c1[nH]c(C(=O)O)c(O)c(=O)c1C2=O | > 100 µM | – |
| O=S(=O)([O-])c1ccc2c(c1)-c1nc-2nc2[n-]c(nc3nc(nc4[n-]c(n1)c1ccc(S(=O)(=O)[O-])cc41)-c1cc(S(=O)(=O)[O-])ccc1-3)c1ccc(S(=O)(=O)[O-])cc21.[Cu+2].[Na+] | > 100 µM | > 100 |
| Cc1nnc(S(=O)(=O)c2ccc(N=Nc3c(N)nc(N)nc3N)cc2)s1 | > 100 µM | – |
| O=c1n(CC2CO2)c(=O)n(CC2CO2)c(=O)n1CC1CO1 (stereo not given) | 72 µM and 82.6 µM | 26.5 |
| O=c1c2ccccc2[se]n1-c1cccnc1 | 52.9 µM | – |

tested on: HOP-18 NSCLC; experiment: NCI tumour cell line growth inhibition, 48 h

| Compound | TGI [µM] |
| --- | --- |
| CNC(=S)N(C)C(=S)Nn1c(=O)c(C)nn(C)c1=S | > 100 |
| O=C1CCCC/C(=C/c2ccccc2)N1 | > 100 |
| O=C1CN=C(C[N+](=O)[O-])c2ccccc21 | > 100 |

Reference: PubChem BioAssay (NCI)
